These results are taken from patent publication US10316028B2, “Orexin receptor antagonists” (Heptares Therapeutics Limited, priority 2012, dated 2019).

Each structure is given as a SMILES string.

In the first test the target is T1, human Orexin-2 receptor (Homo sapiens, UniProt O43614).
T1 construct: expressed in transfected cells; host or cells: HEK293 cells (transient transfection, Genejuice); membranes
T1 sequence (O43614 1-444): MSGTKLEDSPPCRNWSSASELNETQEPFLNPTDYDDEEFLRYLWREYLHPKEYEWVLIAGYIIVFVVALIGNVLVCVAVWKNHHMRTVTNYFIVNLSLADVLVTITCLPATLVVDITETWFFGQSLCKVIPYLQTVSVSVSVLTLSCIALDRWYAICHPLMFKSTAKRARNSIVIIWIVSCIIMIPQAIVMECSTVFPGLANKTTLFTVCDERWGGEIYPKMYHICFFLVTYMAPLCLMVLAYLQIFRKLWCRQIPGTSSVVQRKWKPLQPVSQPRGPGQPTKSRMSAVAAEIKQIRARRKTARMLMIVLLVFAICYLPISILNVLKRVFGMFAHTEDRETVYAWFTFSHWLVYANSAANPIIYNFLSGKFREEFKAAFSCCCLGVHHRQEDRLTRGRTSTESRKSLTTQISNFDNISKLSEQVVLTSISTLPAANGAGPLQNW
Kind of test: 3H-EMPA radioligand binding assay. The note with it: 3H-EMPA displacement, membranes of HEK293 cells transfected with human Orexin-2 receptor; KI by Cheng-Prussoff; read-out: OX2 pKi ave (converted). The gist of the method:
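Membranes from HEK293 cells transiently transfected with human orexin-2 receptor cDNA, assayed with [3H]EMPA. Bound ligand collected on PEI-treated GF/B filters and counted by scintillation; IC50 from inhibition curves, Ki by Cheng-Prusoff.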
With `CSc1cncc(N2C(=O)N(Cc3c(F)cccc3Cl)c3ccccc3S2(=O)=O)c1` [Example 151, 4-(2-Chloro-6-fluorobenzyl)-2-[5-(methylsulfanyl)pyridin-3-yl]-2H-1,2,4-benzothiadiazin-3(4H)-one 1,1-dioxide], the Ki is 2 nM.

With `CN(C)c1cc(N2C(=O)N(Cc3c(F)cc(F)cc3F)c3ccccc3S2(=O)=O)ccn1` [Example 159, 2-[2-(Dimethylamino)pyridin-4-yl]-4-(2,4,6-trifluorobenzyl)-2H-1,2,4-benzothiadiazin-3(4H)-one 1,1-dioxide], the Ki was 3.09 nM.

With `COc1cc(F)c(CN2C(=O)N(c3ccc4ncsc4c3)S(=O)(=O)c3cccnc32)c(F)c1` [Example 182, 2-(1,3-Benzothiazol-6-yl)-4-(2,6-difluoro-4-methoxybenzyl)-2H-pyrido[2,3-e][1,2,4]thiadiazin-3(4H)-one 1,1-dioxide], the Ki is 4.47 nM.

For the compound `COc1ccc(N2C(=O)N(Cc3c(F)cc(C)cc3Cl)c3ccccc3S2(=O)=O)cc1OC` [Example 106, 4-(2-Chloro-6-fluoro-4-methylbenzyl)-2-(3,4-dimethoxyphenyl)-2H-1,2,4-benzothiadiazin-3(4H)-one 1,1-dioxide], the Ki is 0.741 nM.

On to `COc1cc(F)c(CN2C(=O)N(c3cc(OC)nc(OC)c3)S(=O)(=O)c3cccnc32)c(F)c1` [Example 163, 4-(2,6-Difluoro-4-methoxybenzyl)-2-(2,6-dimethoxypyridin-4-yl)-2H-pyrido[2,3-e][1,2,4]thiadiazin-3(4H)-one 1,1-dioxide], for which the Ki is 1.38 nM.

`COc1cc(OC)nc(N2C(=O)N(Cc3c(F)cc(OC)cc3F)c3ccccc3S2(=O)=O)c1` [Example 183, 4-(2,6-difluoro-4-methoxybenzyl)-2-(4,6-dimethoxypyridin-2-yl)-2H-1,2,4-benzothiadiazin-3(4H)-one 1,1-dioxide]: the Ki was 2.75 nM.

For `CC(=O)c1ccc(N2C(=O)N(Cc3c(F)cccc3Cl)c3ccccc3S2(=O)=O)cc1` [Example 30, 2-(4-acetylphenyl)-4-(2-chloro-6-fluorobenzyl)-2H-1,2,4-benzothiadiazin-3(4H)-one 1,1-dioxide], the Ki is 20 nM.

Regarding `CSc1cccc(N2C(=O)N(C(C)c3ccccc3F)c3ccc(F)cc3S2(=O)=O)c1` (stereo not shown) [Example 63, 7-Fluoro-4-[1-(2-fluorophenyl)ethyl]-2-[3-(methylsulfanyl)phenyl]-2H-1,2,4-benzothiadiazin-3(4H)-one 1,1-dioxide], the Ki is 832 nM.

On to `CSc1cccc(N2C(=O)N(Cc3cc(C)ccc3C)c3ccccc3S2(=O)=O)c1` [Example 51, 4-(2,5-dimethylbenzyl)-2-[3-(methylsulfanyl)phenyl]-2H-1,2,4-benzothiadiazin-3(4H)-one 1,1-dioxide], for which the Ki was 17.8 nM.

`CSc1ccc(N2C(=O)N(Cc3c(F)cc(F)cc3F)c3ccccc3S2(=O)=O)cn1` [Example 160, 2-[6-(Methylsulfanyl)pyridin-3-yl]-4-(2,4,6-trifluorobenzyl)-2H-1,2,4-benzothiadiazin-3(4H)-one 1,1-dioxide]: the Ki is 17.4 nM.

In a further test the test system is rat CT18 sleep model. Briefly: Rat telemetered sleep study (rat CT18 sleep model). It is filed as in vivo. The note with it: positive control, male CD rats, CT18. How it is done:
Rat Telemetered Sleep Study
Example 100 was assessed for activity in a rat CT18 sleep model. Adult male CD rats (250-300 g) were implanted with telemetric probes fixed to the skull to record cortical electroencephalogram (EEG), and with telemetric probes fixed to the skeletal muscles of the neck to record electromyogram (neck EMG), and allowed to recover for 3 weeks to re-establish normal sleep patterns. Rats were administered with example 100 (3, 10 and 30 mg/kg, po) or vehicle (80% v/v PEG400, 20% v/v Cremophor EL, 2 ml/kg) at Circadian Time (CT) 18, six hours after lights off. EEG and neck EMG traces were recorded for 5 hours after treatment and analysed to determine time spent awake and in NREM sleep and REM sleep.
Turning to `Cc1ccc(-c2nc3ccc(C)cn3c2CC(=O)N(C)C)cc1` [zolpidem, reference compound], the NREM latency result is on record as “decrease”, the NREM sleep result is “increase” and the time spent awake entry is “decrease”.
